Test results taken from patent publication US7696203B2, “DNA-PK inhibitors” (Kudos Pharmaceuticals Limited, priority 2005, dated 2010).
Where two headings read alike, the source gives them in different places.

Key:
Mammalian DNA-PK = Mammalian DNA-PK (Homo sapiens, UniProt P78527); experiment: DNA-PK inhibition assay (ELISA of p53 Ser15 phosphorylation of GST-p53N66); format: biochemical, human (isolated from HeLa cell nuclear extract)
Experimental: In order to assess the inhibitory action of the compounds against DNA-PK in vitro, the following assay was used to determine IC50 values.
To the assay mix, varying concentrations of inhibitor (in DMSO at a final concentration of 1%) were added. After 10 minutes of incubation, ATP was added to give a final concentration of 50 μM along with a 30 mer double stranded DNA oligonucleotide (final concentration of 0.5 ng/ml) to initiate the reaction. After 1 hour with shaking, 150 μl of phosphate buffered saline (PBS) was added to the reaction and 5 μl then transferred to a 96 well opaque white plate containing 45 μl of PBS per well where the GSTp53N66 substrate was allowed to bind to the wells for 1 hour. To detect the phosphorylation event on the serine 15 residue of p53 elicited by DNA-PK a p53 phosphoserine-15 antibody (Cell Signaling Technology) was used in a basic ELISA procedure. An anti-rabbit HRP conjugated secondary antibody (Pierce) was then employed in the ELISA before the addition of chemiluminescence reagent (NEN Renaissance) to detect the signal as measured by chemiluminescent counting via a TopCount NXT (Packard).
The enzyme activity for each compound is then calculated using the following equation: […]
These are determined over a range of different concentrations, normally from 10 μM down to 0.001 μM. Such IC50 values are used as comparative values to identify increased compound potencies.

cells = conditions: ionising radiation, literature; cited from earlier work
HeLa cells = experiment: Survival Enhancement Ratio (clonogenic survival after 2 Gray irradiation); format: cell-based, human; conditions: inhibitor at 100 nM
Experimental: Survival Enhancement Ratio
The Survival Enhancement Ratio (SER) is a ratio of the enhancement of cell kill elicited by the DNA-PK inhibitor after 2 Grays of irradiation compared to unirradiated control cells. […] Radiation was delivered by a Faxitron 43855D machine at a dose rate of 1 Gy pre minute The SER at 2 Gray irradiation was calculated from the formula:
The degree of cell killing was monitored by a standard clonogenic survival assay. Briefly, tissue culture treated 6-well plates were seeded with HeLa cells at an appropriate concentration to give 100-200 colonies per well and returned to the incubator in order to allow the cells to attach. Four hours later, compound or vehicle control was added to the cells. The cells were then incubated for 1 hour in the presence of inhibitor prior to irradiation at 2 Gray using a Faxitron 43855D cabinet X-ray machine. The cells were then incubated for a further 16 hours before the media was replaced with fresh media in the absence of DNA-PK inhibitor. After 8 days, colonies formed were fixed and stained with Giemsa (Sigma, Poole, UK) and scored using an automated colony counter (Oxford Optronics Ltd, Oxford, UK). The data was calculated as described above.

[1] = DNA-PK from HeLa nuclear extract, 50 μM ATP, 30° C., read-out: IC50 (concentration at which 50% of the enzyme activity is inhibited), DNA-PK inhibition

Structure (SMILES) | IC50 (Mammalian DNA-PK; [1]) | also measured
Nc1ccc(-c2cccn3c(=O)cc(N4CCOCC4)nc23)c2sc3ccccc3c12 [Compound 23, 9-(1-Amino-dibenzothiophen-4-yl)-2-morpholin-4-yl-pyrido[2,1-a]pyrimidin-4-one] | < 100 nM | 
Nc1ccc(-c2cccc3c(=O)cc(N4CCOCC4)[nH]c23)c2sc3ccccc3c12 [Compound 25, 8-(1-amino-dibenzothiophen-4-yl)-2-morpholin-4-yl-1H-quinolin-4-one] | < 100 nM | 
O=c1cc(N2CCOCC2)[nH]c2c(-c3ccc([N+](=O)[O-])c4c3oc3ccccc34)cccc12 [Compound 28, 2-Morpholin-4-yl-8-(1-nitro-dibenzofuran-4-yl)-1H-quinolin-4-one] |  | melting point: 247 °C
O=c1cc(N2CCOCC2)nc2c(-c3ccc(O)c4c3sc3ccccc34)cccn12 [Compound 31, 9-(1-Hydroxy-dibenzothiophen-4-yl)-2-morpholin-4-yl-pyrido[2,1-a]pyrimidin-4-one] | < 100 nM | 
O=c1cc(N2CCOCC2)nc2c(-c3cccc4c3oc3ccccc34)cccn12 [Compound 34b] |  | IC50 (Mammalian DNA-PK): < 100 nM
O=C(CN1CCOCC1)Nc1ccc(-c2cccc3c(=O)cc(N4CCOCC4)[nH]c23)c2sc3ccccc3c12 [Compound 38b] | < 100 nM | 
COCCN1CCN(CC(=O)Nc2ccc(-c3cccc4c(=O)cc(N5CCOCC5)[nH]c34)c3oc4ccccc4c23)CC1 [Compound 42b] | < 100 nM | 
C[C@@H]1CN(CC(=O)Nc2ccc(-c3cccc4c(=O)cc(N5CCOCC5)[nH]c34)c3oc4ccccc4c23)C[C@H](C)O1 [Compound 42d] | < 100 nM | 
O=C(CN1CCN(CCO)CC1)Nc1ccc(-c2cccc3c(=O)cc(N4CCOCC4)[nH]c23)c2oc3ccccc3c12 [Compound 42f] | < 100 nM | 
C[C@@H]1CN(CCC(=O)Nc2ccc(-c3cccc4c(=O)cc(N5CCOCC5)oc34)c3oc4ccccc4c23)C[C@H](C)O1 [Compound 45a] | < 100 nM | 
O=C(CCN1CCOCC1)Nc1ccc(-c2cccc3c(=O)cc(N4CCOCC4)oc23)c2oc3ccccc3c12 [Compound 45c] | < 100 nM | 
O=c1cc(N2CCOCC2)oc2c(-c3ccccc3)cccc12 [LY294002] |  | sensitisation of cells to the effects of IR (cells): weakly sensitise cells
O=c1cc(N2CCOCC2)oc2c(-c3cccc4c3sc3ccccc34)cccc12 [reference compound] |  | SER (Survival Enhancement Ratio) (HeLa cells): 1.3; IC50 (Mammalian DNA-PK): 10 to 12 nM
